Target: His-tagged recombinant human Gal-3 (hGal-3) (Homo sapiens, UniProt P17931)
Assay: Gal-3 HTRF assay: His-tagged hGal-3 binding to B-ASF, Anti-His terbium antibody / Streptavidin d2 detection;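 further: compound preincubated 30 min with hGal-3, then 1 h with B-ASF, DMSO wells with B-ASF serving as positive control and those lacking B-ASF as negative control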
Settings: 15 nM hGal-3, 15 nM B-ASF, three replicates, room temperature

Chain of His-tagged recombinant human Gal-3 (hGal-3) (P17931 whole entry): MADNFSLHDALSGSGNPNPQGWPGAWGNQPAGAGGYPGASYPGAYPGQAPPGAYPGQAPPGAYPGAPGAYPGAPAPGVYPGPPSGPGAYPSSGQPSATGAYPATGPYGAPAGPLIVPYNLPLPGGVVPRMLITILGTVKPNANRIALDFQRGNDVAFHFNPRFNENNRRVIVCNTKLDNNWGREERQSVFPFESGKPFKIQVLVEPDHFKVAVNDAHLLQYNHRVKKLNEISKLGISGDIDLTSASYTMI

Structure (SMILES)	IC50 [nM]
COc1ncc(-c2cn([C@H]3COC[C@@H](S[C@@H]4O[C@H](CO)[C@H](O)[C@H](n5cc(-c6cc(F)c(F)c(F)c6)nn5)[C@H]4OCC(=O)O)[C@@H]3O)nn2)cn1 [Example 30, 2-(((2S,3R,4S,5R,6R)-5-hydroxy-2-(((3R,4R,5S)-4-hydroxy-5-(4-(2-methoxypyrimidin-5-yl)-1H-1,2,3-triazol-1-yl)tetrahydro-2H-pyran-3-yl)thio)-6-(hydroxymethyl)-4-(4-(3,4,5-trifluorophenyl)-1H-1,2,3-triazol-1-yl)tetrahydro-2H-pyran-3-yl)oxy)acetic acid]	8
COc1cnc(-c2cn([C@H]3COC[C@@H](S[C@@H]4O[C@H](CO)[C@H](O)[C@H](n5cc(-c6cc(F)c(F)c(F)c6)nn5)[C@H]4OC)[C@@H]3O)nn2)nc1N [Example 21, (2R,3R,4S,5R,6S)-6-(((3R,4R,5S)-5-(4-(4-amino-5-methoxypyrimidin-2-yl)-1H-1,2,3-triazol-1-yl)-4-hydroxytetrahydro-2H-pyran-3-yl)thio)-2-(hydroxymethyl)-5-methoxy-4-(4-(3,4,5-trifluorophenyl)-1H-1,2,3-triazol-1-yl)tetrahydro-2H-pyran-3-ol]	23
CO[C@@H]1[C@@H](n2cc(-c3ccncc3)nn2)[C@@H](O)[C@@H](CO)O[C@H]1S[C@@H]1COC[C@H](n2cc(-c3ccccc3)nn2)[C@H]1O [Example A2, (2R,3R,4S,5R,6S)-6-(((3R,4R,5S)-4-hydroxy-5-(4-phenyl-1H-1,2,3-triazol-1-yl)tetrahydro-2H-pyran-3-yl)thio)-2-(hydroxymethyl)-5-methoxy-4-(4-(pyridin-4-yl)-1H-1,2,3-triazol-1-yl)tetrahydro-2H-pyran-3-ol]	1100
CO[C@@H]1[C@@H](n2cc(-c3cncs3)nn2)[C@@H](O)[C@@H](CO)O[C@H]1S[C@@H]1COC[C@H](n2cc(-c3ccccc3)nn2)[C@H]1O [Example A7, (2R,3R,4S,5R,6S)-6-(((3R,4R,5S)-4-hydroxy-5-(4-phenyl-1H-1,2,3-triazol-1-yl)tetrahydro-2H-pyran-3-yl)thio)-2-(hydroxymethyl)-5-methoxy-4-(4-(thiazol-5-yl)-1H-1,2,3-triazol-1-yl)tetrahydro-2H-pyran-3-ol]	840
CN(C(=O)COC1C(SC2COCC(n3cc(-c4cncnc4)nn3)C2O)OC(CO)C(O)C1n1cc(-c2cc(F)c(F)c(F)c2)nn1)c1ccccc1 [Example 29, 2-(((2S,3R,4S,5R,6R)-5-hydroxy-2-(((3R,4R,5S)-4-hydroxy-5-(4-(pyrimidin-5-yl)-1H-1,2,3-triazol-1-yl)tetrahydro-2H-pyran-3-yl)thio)-6-(hydroxymethy)-4-(4-(3,4,5-trifluorophenyl)-1H-1,2,3-triazol-1-yl)-2H-pyran-3-yl)oxy)-N-methyl-N-phenylacetamide]	25
COc1ncc(-c2cn(C3COCC(SC4OC(CO)C(O)C(n5cc(-c6cc(F)c(F)c(F)c6)nn5)C4OCC(=O)N4CCS(=O)(=O)CC4)C3O)nn2)cn1 [Example 33, 1-(1,1-dioxidothiomorpholino)-2-(((2S,3R,4S,5R,6R)-5-hydroxy-2-(((3R,4R,5S)-4-hydroxy-5-(4-(2-methoxypyrimidin-5-yl)-1-1,2,3-triazol-1-yl)tetrahydro-2H-pyran-3-yl)thio)-6-(hydroxymethyl)-4-(4-(3,4,5-trifluorophenyl)-1H-1,2,3-triazol-1-yl)tetrahydro-2H-pyran-3-yl)oxy)ethan-1-one]	12

Next, values leading:

IC50 [nM]	Structure (SMILES)
32	CC(=O)N1C[C@@H](S[C@@H]2O[C@H](CO)[C@H](O)[C@H](n3cc(-c4cc(F)c(F)c(F)c4)nn3)[C@H]2OCC(=O)O)[C@H](O)[C@@H](n2cc(-c3cccc(F)c3)nn2)C1 [Example B4, 2-(((2S,3R,4S,5R,6R)-2-(((3R,4R,5S)-1-acetyl-5-(4-(3-fluorophenyl)-1H-1,2,3-triazol-1-yl)-4-hydroxypiperidin-3-yl)thio)-5-hydroxy-6-(hydroxymethyl)-4-(4-(3,4,5-trifluorophenyl)-1H-1,2,3-triazol-1-yl)tetrahydro-2H-pyran-3-yl)oxy)acetic acid]
54	COC1C(SC2CN(C(C)=O)CC(n3cc(-c4cccc(F)c4)nn3)C2O)OC(CO)C(O)C1n1cc(-c2cccc(F)c2)nn1 [Example B3, 1-((3S,4R,5R)-3-(4-(3-fluorophenyl)-1H-1,2,3-triazol-1-yl)-5-(((2S,3R,4S,5R,6R)-4-(4-(3-fluorophenyl)-1H-1,2,3-triazol-1-yl)-5-hydroxy-6-(hydroxymethyl)-3-methoxytetrahydro-2H-pyran-2-yl)thio)-4-hydroxypipeddin-1-yl)ethan-1-one]
